Data: US10457707B2, “Substituted urea depsipeptide analogs as activators of the CLPP endopeptidase” (priority 2015, dated 2019)
Values after ≈ are worked out from the molar mass of the structure shown. Like-named read-outs stand apart in the source and are kept apart here. *1 amine or outer side, *2 acyl side, *3 side chain or, on linkers, in order; H or OH if unused. Where a SMILES comes first, the peptide text is derived from it. Bridges are numbered along the chain shown (N, C = ends). [ ]: non-standard residue; d: D form. The star is where a group is joined. Phe(3,5-F2) = N[C@@H](Cc1cc(F)cc(F)c1)C(=O)O; NH(4-OCF3-phenyl) = FC(F)(F)Oc1ccc(N*)cc1; Pro(4S-Me) = C[C@@H]1CN[C@H](C(=O)O)C1; Pro(4R-Me) = C[C@H]1CN[C@H](C(=O)O)C1; Heptenoyl(2E) = CCCC/C=C/C(=O)*; aThr = C[C@H](O)[C@H](N)C(=O)O; X13 = c1nc2cc(N*)ccc2[nH]1; Pip = O=C(O)[C@@H]1CCCCN1; CO = O=C([*:1])[*:2]

Tests used:
[1] = tested on: Vero (kidney epithelial cells; ATCC CCL-81); test: Cytotoxicity assay (CellTiter-Glo cell viability, 72 hours); format: cell-based; details: Vero cells, 72 hours, growth inhibition; read-out: Cytotoxicity IC50
Description: (§1) Cytotoxicity was determined by determining the effect of compounds on cell viability. Vero (kidney epithelial cells; ATCC CCL-81) monolayers were trypsinized and 5000 cells/well were seeded (10-15% confluency) into white-wall, flat bottom 96 well microwell plates (Corning) using enriched Dulbecco's Modified Eagle's Medium (Hyclone:DMEM/High Glucose) containing 10% Fetal Bovine Serum (ATCC-30-2020). Plates were incubated overnight at 37° C. in the presence of 5% CO2. Drug-free media was then replaced with media containing serial dilutions of test compound or DMSO carrier. After an additional 72 hours of incubation, viability was indirectly measured using the CellTiter-Glo® Luminescent Cell Viability (Promega) assay. Assay plates were read at peak emission wavelength of 560 nm using a EnVision® Multilabel Plate Reader (Perkin Elmer) or PHERAstar FS Multilabel reader (BMG, Cary, N.C.). […] USA, www.graphpad.com]. For each experiment, compounds were tested in duplicate. IC50 values presented are the range of two biologically independent experiments.

[2] = tested on: Bacillus subtilis, ATCC 23857; test: Minimal inhibitory concentration assay (microbroth dilution); format: cell-based
Procedure, shortened: (§2)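 CLSI broth microdilution; 2-fold series from 200 μM final; inoculum ~10^5 cfu/mL; 37 °C, aerobic, overnight; visual MIC = lowest conc. without growth. The ClpP-inactivated USA 300 strain is the comparator for ClpP-dependent killing.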

[3] = tested on: Staphylococcus aureus, ATCC 29213; test: as above; format: cell-based; details: ATCC29213, read-out: Minimal Inhibitory Concentrations S. aureus ATCC 29213
Procedure, shortened: as §2

[4] = tested on: Staphylococcus aureus, NRS70; test: as above; format: cell-based
Procedure, shortened: as §2

[5] = tested on: Streptococcus pyogenes, ATCC 700294; test: as above; format: cell-based
Procedure, shortened: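 CLSI broth microdilution: two-fold serial compound dilutions in appropriate broth, inoculated and incubated aerobically overnight at 37° C. MIC read visually as lowest concentration preventing bacterial growth.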

[6] = tested on: Enterococcus faecalis, ATCC 33186; test: as above; format: cell-based; details: Enterococcus faecalis, ATCC33186; read-out: Minimal Inhibitory Concentrations E. faecalis ATCC 33186
Procedure, shortened: as §2

[7] = tested on: Staphylococcus aureus, USA 300 wherein ClpP is inactivated; test: Minimal inhibitory concentration assay; format: cell-based
Procedure, shortened: as §2

[8] = tested on: Staphylococcus aureus, USA 300; test: Minimal inhibitory concentration assay; format: cell-based; details: USA300, read-out: Minimal Inhibitory Concentrations S. aureus USA 300
Procedure, shortened: as §2

Sa-ClpP [9] = biological target: T1, Sa-ClpP (Staphylococcus aureus, UniProt Q2G036); test: Sa-ClpP casein-BODIPY ClpP activation assay, method variant not marked in Table 5; format: biochemical, S. aureus; details: values without ** or † mark; assay variant not stated; read-out: ClpP Activation EC50
T1 construct: made in house; host or cells: E. coli BL21(DE3)
T1 sequence (Q2G036 1-195): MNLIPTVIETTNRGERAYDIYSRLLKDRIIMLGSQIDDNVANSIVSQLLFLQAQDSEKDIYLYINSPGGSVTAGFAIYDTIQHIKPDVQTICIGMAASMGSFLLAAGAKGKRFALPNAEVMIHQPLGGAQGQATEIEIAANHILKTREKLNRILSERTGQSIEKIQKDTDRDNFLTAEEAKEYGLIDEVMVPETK
Description: The compounds were assayed in a casein digestion assay in order to determine their effect on ClpP activation. Briefly, the assay was carried out using S. aureus ClpP (“Sa-ClpP”) overexpressed in E. coli BL21(DE3) and purified in a two-step process. Purity of the protein was assessed through SDS PAGE analysis. EC50 evaluations were conducted in triplicate in a 20 μl assay format using a method adapted from Maurizi et al. (Methods Enzymol. (1994) 244:314-331). Each well contained 10 μM saClpP, 25 μg/ml BODIPY FL casein (Invitrogen Corporation, San Diego, Calif.), and test compound in concentrations ranging between 0-1000 μM in assay buffer (50 mM Tris pH 8, 200 mM KCl, and 1 mM TCEP). The reaction took place at 37° C. Fluorescence (excitation 485 nm; emission 528 nm) was measured in five minute intervals over a 45 min period using a BioTek HT fluorescence microplate reader (BioTek Instruments, Inc., Winooski, Vt.). Velocity of each reaction was calculated and data was fit to a dose response curve using GraphPad Prism® software (GraphPad Software, Inc., La Jolla, Calif.). EC50 is the effective concentration of compound which causes 50% activation of S. aureus ClpP in the foregoing BODIPY FL casein assay.
Alternatively, the assay was carried out using EnzCheck Protease Assay (Molecular Probes, Catalog # E6638). The assay was performed in black 384 well, flat bottom, low volume plates (Greiner Bio-One, Monroe, N.C., catalog #784076). 10 μL of Tris*HCl buffer, pH 8.0 with 0.01% Triton X-100 was pipetted into each well using a Well-Mate (Thermo Scientific, Waltham, Mass.). 0.4 μL test compounds or controls (2% DMSO v/v) were added to each well using a Biomek FX liquid handling robot (Beckman Coulter, Indianapolis Ind.). After addition of test compounds and controls, 10 μL of master mix containing 2 μM Sa-ClpP and 2 μM substrate (Bodipy-FL labeled casein) in Tris*HCl buffer, pH 8.0 with 0.01% (v/v) Triton X-100, was pipetted into each well. All assays were performed in triplicate, under linear velocity conditions. Increase in fluorescent signal following activation of Sa-ClpP by test compounds and controls was measured over time period of 30 mins using filters with excitation at 485±15 nm and emission at 520±25 nm on a PHERAstar FS Multilabel reader (BMG, Cary, N.C.). […] Data analysis was done by measuring rate of casein degradation over time (slopes). Computed degradation rates (slopes) were normalized to positive (ADEP4) or negative (DMSO) controls. Using nonlinear regression curve fitting EC50 values and % activation were determined using the equation “log [agonist] vs. Response-variable slope (four parameters)-symmetrical” in the program Prism 6 (GraphPad Software, La Jolla, Calif. USA, www.graphpad.com).
Substituted urea depsipetide analogs were synthesized as described above. The EC50 for ClpP activation was determined in the Sa-ClpP in casein-BODIPY assay as described above. The IC50 for ADEP displacement was determined in the ADEP displacement fluorescent polarization assay as described above; and the IC50 for growth inhibition was determined in the Vero cell cytotoxicity assay as described above. The compound number corresponds to the compound numbers used in Tables 1-4 and the experimental examples described above.

Sa-ClpP [10] = biological target: T1, Sa-ClpP; test: ADEP displacement fluorescence polarization assay (FP probe ADEP 2591); format: binding
Description: A fluorescence polarization (FP) assay was used to determine the activity of the disclosed compounds in displacing an ADEP analogue from ClpP. Briefly, the assay was performed in black 384 well, flat bottom, low volume plates (Greiner Bio-One, Monroe, N.C., catalog #784076). 20 μL of a pre-equilibrated (1 hr, room temperature) master mix (15 μM Sa-ClpP, 2% DMSO (v/v) and 50 nM FP probe in Tris*HCl, pH 8.0)) was pipetted into each well using a Well-Mate (Thermo Scientific, Waltham, Mass.). Sa-ClpP was prepared as described above for the ClpP activation assay. The FP probe was ADEP 2591 (structure shown above). The ADEP 2591 comprises a TAMRA fluorophore linked to a core based on modified ADEP 2378 via a short alkyl linker. Using pin transfer, approximately 0.4 μL (2% v/v DMSO) of each compound or control was added per well. After addition of compounds and controls, plates were allowed to incubate for an additional 120 minutes at room temperature. All assays were performed in triplicate. Polarization was monitored using an EnVision Multilabel reader (Perkin-Elmer, Waltham, Mass.) by exciting the FP probe at 530±25 nm, and monitoring fluorescence intensity of both parallel and perpendicular polarized light at 579±25 nm. Readout was in millipolarization units (mP).
Data collected was normalized to values obtained from positive (200 μM ADEP 2378) or negative (DMSO) controls. Curves were fit with non-linear regression using the equation “log [inhibitor] vs. Response-variable slope (four parameters)-symmetrical” in the program Prism 6 (GraphPad Software, La Jolla, Calif. USA, www.graphpad.com). The structures for ADEP 2378 and ADEP 2591 are shown above. ADEP 2378 is (E)-N—((S)-1-(((2R,6S,8aS,14aS,20S,23aS)-2,6-dimethyl-5,8,14,19,23-pentaoxooctadecahydro-1H,5H,14H,19H-pyrido[2,1-i]dipyrrolo[2,1-c:2′,1′-1][1]oxa[4,7,10,13]tetraazacyclohexadecin-20-yl)amino)-1-oxo-3-phenylpropan-2-yl)pent-2-enamide. ADEP 2591 is 5-(3-(3-((6S,9S,11aS,17S,20aS)-6,10-dimethyl-5,8,11,16,20-pentaoxo-17-((S)-2-((E)-pent-2-enamido)-3-phenylpropanamido)hexadecahydro-1H,5H,16H-dipyrrolo[2,1-c:2′,1′-1][1]oxa[4,7,10,13]tetraazacyclohexadecin-9-yl)propyl)thioureido)-2-(6-(dimethylamino)-3-(dimethyliminio)-3H-xanthen-9-yl)benzoate.

[11] = Cytotoxicity assay (CellTiter-Glo cell viability, 72 hours); format: cell-based; details: African green monkey; Vero cells, 72 hours, growth inhibition; read-out: Cytotoxicity IC50
Description: as §1

For `C[C@H]1C[C@H]2C(=O)O[C@@H](C)[C@H](NC(=O)[C@H](Cc3cc(F)cc(F)c3)NC(=O)Nc3ccc(OC(F)(F)F)cc3)C(=O)N3CCC[C@H]3C(=O)N3CCCC[C@H]3C(=O)N[C@@H](C)C(=O)N2C1` [Compound 22, (S)-3-(3,5-difluorophenyl)-2-(3-(4-(trifluoromethoxy)phenyl)ureido)-N-((2R,6S,8aS,14aS,20S,21S,23aS)-2,6,21-trimethyl-5,8,14,19,23-pentaoxooctadecahydro-1H,5H,14H,19H-pyrido[2,1-i]dipyrrolo[2,1-c:2′,1′-l][1]oxa[4,7,10,13]tetraazacyclohexadecin-20-yl)propanamide] ({NH(4-OCF3-phenyl)-CO}-[Phe(3,5-F2)][aThr]P[Pip]A[Pro(4S-Me)]; ester 2-C), the IC50 [1] was 52.3 ± 7.7 µM.
For `Cc1ccc(NC(=O)N[C@@H](Cc2cc(F)cc(F)c2)C(=O)N[C@H]2COC(=O)[C@@H]3C[C@@H](C)CN3C(=O)[C@H](C)NC(=O)[C@@H]3CCCCN3C(=O)[C@@H]3CCCN3C2=O)cc1` [Compound 24, (S)-3-(3,5-difluorophenyl)-N-((2R,6S,8aS,14aS,20S,23aS)-2,6-dimethyl-5,8,14,19,23-pentaoxooctadecahydro-1H,5H,14H,19H-pyrido[2,1-i]dipyrrolo[2,1-c:2′,1′-l][1]oxa[4,7,10,13]tetraazacyclohexadecin-20-yl)-2-(3-(p-tolyl)ureido)propanamide], the IC50 [1] was 93.8 ± 4.8 µM, the MIC ([2]; Bacillus subtilis, ATCC23857, read-out: Minimal Inhibitory Concentrations B. subtilis ATCC 23857) was 2.2 µM (≈ 1.75 µg/mL) and the MIC [3] was 0.5 µM (≈ 0.397 µg/mL). The MIC ([4]; Staphylococcus aureus, NRS70, read-out: Minimal Inhibitory Concentrations S. aureus NRS70) was 0.5 µM (≈ 0.397 µg/mL) and the MIC ([5]; Streptococcus pyogenes, ATCC700294, read-out: Minimal Inhibitory Concentrations S. pyogenes ATCC 700294) was 0.5 µM (≈ 0.397 µg/mL).
Work on `CCCC/C=C/C(=O)N[C@@H](Cc1cc(F)cc(F)c1)C(=O)N[C@@H]1C(=O)N2CCC[C@H]2C(=O)N2CCCC[C@H]2C(=O)N[C@@H](C)C(=O)N2CCC[C@H]2C(=O)O[C@H]1C` [ADEP 2719, reference compound] ({Heptenoyl(2E)}-[Phe(3,5-F2)][aThr]P[Pip]AP; ester 2-C) yielded an IC50 [1] of 37.7 ± 3.4 µM, an MIC ([2]; Bacillus subtilis, ATCC23857; read-out: Minimal Inhibitory Concentrations B. subtilis ATCC 23857) of under 0.01 µM and an MIC [6] of 0.08 µM (≈ 0.0617 µg/mL). It also gave an MIC [3] of 0.07 µM (≈ 0.054 µg/mL), an MIC ([4]; Staphylococcus aureus, NRS70; read-out: Minimal Inhibitory Concentrations S. aureus NRS70) of 0.08 µM (≈ 0.0617 µg/mL) and an MIC ([5]; Streptococcus pyogenes, ATCC700294; read-out: Minimal Inhibitory Concentrations S. pyogenes ATCC 700294) of under 0.2 µM. The “Minimal Inhibitory Concentrations S. aureus USA 300 ΔClpP” value [7] was 500 µM and the MIC [8] was under 0.19 µM.
With `C[C@@H]1C[C@H]2C(=O)O[C@@H](C)[C@H](NC(=O)[C@H](Cc3cc(F)cc(F)c3)NC(=O)Nc3ccc4[nH]cnc4c3)C(=O)N3CCC[C@H]3C(=O)N3CCCC[C@H]3C(=O)N[C@@H](C)C(=O)N2C1` [Compound 303, (S)-2-(3-(1H-benzo[d]imidazol-6-yl)ureido)-3-(3,5-difluorophenyl)-N-((2R,6S,8aS,14aS,20S,21S,23aS)-2,6,21-trimethyl-5,8,14,19,23-pentaoxooctadecahydro-1H,5H,14H,19H-pyrido[2,1-i]dipyrrolo[2,1-c:2′,1′-l][1]oxa[4,7,10,13]tetraazacyclo-hexadecin-20-yl)propanamide] ({X13-CO}-[Phe(3,5-F2)][aThr]P[Pip]A[Pro(4R-Me)]; ester 2-C) the EC50 (Sa-ClpP [9]) was 1.43 ± 0.03 µM, the IC50 (Sa-ClpP [10]) was 11.1 ± 0.4 µM and the IC50 at 72 h [11] was over 100 µM.
